Experimental data as given in the NIST ThermoML archive (doi:10.1016/j.fluid.2005.05.023).
± gives the expanded uncertainty stated by the source.

Details: Liquid, Vibrating tube method

Cc1ccccc1 [toluene]
mass density [kg/m3]
Details	100 kPa	5000 kPa	10000 kPa	15000 kPa	20000 kPa	25000 kPa	30000 kPa	35000 kPa	40000 kPa	45000 kPa
283.15 K	876.1 ± 0.2	879.5 ± 0.2	882.9 ± 0.3	886.1 ± 0.3	889.3 ± 0.3	892.4 ± 0.3	895.3 ± 0.3	898.2 ± 0.3	901 ± 0.3	903.7 ± 0.3
293.15 K	866.8 ± 0.2	870.5 ± 0.2	874.1 ± 0.3	877.5 ± 0.3	880.8 ± 0.3	884 ± 0.3	887.1 ± 0.3	890.1 ± 0.3	893 ± 0.3	895.9 ± 0.3
303.15 K	857.5 ± 0.2	861.4 ± 0.2	865.2 ± 0.3	868.8 ± 0.3	872.3 ± 0.3	875.7 ± 0.3	879 ± 0.3	882.1 ± 0.3	885.2 ± 0.3	888.1 ± 0.3
313.15 K	848.1 ± 0.2	852.2 ± 0.3	856.2 ± 0.3	860 ± 0.3	863.7 ± 0.3	867.3 ± 0.3	870.7 ± 0.3	874 ± 0.3	877.2 ± 0.3	880.3 ± 0.3
323.15 K	838.6 ± 0.2	843 ± 0.3	847.2 ± 0.3	851.3 ± 0.3	855.2 ± 0.3	858.9 ± 0.3	862.5 ± 0.3	866 ± 0.3	869.4 ± 0.3	872.6 ± 0.4
333.15 K	828.8 ± 0.2	833.5 ± 0.3	838 ± 0.3	842.3 ± 0.3	846.4 ± 0.3	850.4 ± 0.3	854.2 ± 0.3	857.9 ± 0.3	861.4 ± 0.4	864.8 ± 0.4
343.15 K	819.2 ± 0.2	824.1 ± 0.3	829 ± 0.3	833.5 ± 0.3	837.9 ± 0.3	842.1 ± 0.3	846 ± 0.3	849.9 ± 0.4	853.5 ± 0.4	857 ± 0.4
353.15 K	809.4 ± 0.2	814.7 ± 0.3	819.9 ± 0.3	824.7 ± 0.3	829.3 ± 0.3	833.7 ± 0.3	837.9 ± 0.3	841.9 ± 0.4	845.7 ± 0.4	849.4 ± 0.4

CCO [ethanol]
mass density [kg/m3]
Details	100 kPa	5000 kPa	10000 kPa	15000 kPa	20000 kPa	25000 kPa	30000 kPa	35000 kPa	40000 kPa	45000 kPa
283.15 K	798 ± 0.2	802 ± 0.3	805.9 ± 0.3	809.5 ± 0.3	813 ± 0.3	816.4 ± 0.3	819.7 ± 0.4	822.8 ± 0.4	825.9 ± 0.4	828.8 ± 0.4
293.15 K	789.5 ± 0.2	793.7 ± 0.3	797.8 ± 0.3	801.6 ± 0.3	805.3 ± 0.3	808.9 ± 0.3	812.3 ± 0.4	815.6 ± 0.4	818.7 ± 0.4	821.8 ± 0.4
303.15 K	780.9 ± 0.2	785.3 ± 0.3	789.6 ± 0.3	793.7 ± 0.3	797.5 ± 0.3	801.3 ± 0.3	804.8 ± 0.4	808.2 ± 0.4	811.5 ± 0.4	814.7 ± 0.4
313.15 K	772.1 ± 0.2	776.8 ± 0.3	781.3 ± 0.3	785.6 ± 0.3	789.6 ± 0.3	793.5 ± 0.4	797.2 ± 0.4	800.8 ± 0.4	804.2 ± 0.4	807.6 ± 0.5
323.15 K	763.3 ± 0.2	768.3 ± 0.3	773 ± 0.3	777.6 ± 0.3	781.8 ± 0.3	785.9 ± 0.4	789.7 ± 0.4	793.5 ± 0.4	797.1 ± 0.4	800.5 ± 0.5
333.15 K	754 ± 0.2	759.3 ± 0.3	764.3 ± 0.3	769.1 ± 0.3	773.6 ± 0.3	777.8 ± 0.4	781.9 ± 0.4	785.8 ± 0.4	789.5 ± 0.5	793.1 ± 0.5
343.15 K	744.5 ± 0.2	750.1 ± 0.3	755.5 ± 0.3	760.5 ± 0.3	765.3 ± 0.4	769.8 ± 0.4	774 ± 0.4	778.1 ± 0.4	782 ± 0.5	785.7 ± 0.5
353.15 K	–	740.6 ± 0.3	746.4 ± 0.3	751.7 ± 0.3	756.7 ± 0.4	761.5 ± 0.4	766 ± 0.4	770.2 ± 0.4	774.3 ± 0.5	778.2 ± 0.5
